Source: patent US20260217701A1, “SELECTIVE BET INHIBITORS AND USES THEREOF” (Tay Therapeutics Limited, priority 2022, published 2026)
Where “and” joins values, the source holds several entries; their conditions need not be identical. Identical values can stand only once. Entries after “also recorded” stand apart in the source; their conditions may differ. Like-named read-outs stand apart in the source and are kept apart here.

Experiments:
renal fibrosis (UUO) = experiment: Unilateral Urethral Obstruction (UUO) model of renal fibrosis: clinical histopathology scores; assay type: in vivo, rats; design: key to Glomerulosclerosis clinical score / Interstitial nephritis clinical score / Collagen fiber deposition clinical score / Nephropathy clinical score: 0=no more or absence; 1=low; 2=moderate; 3=high; 4=severe
Experimental: Starting on Day 0, animals in group 2 were administered daily doses of the vehicle for 14 days. Starting on Day 0, animals in group 3 were administered daily doses of Compound A (10 mg/kg) for 14 days. A design of the UUO study is depicted in FIG. 24.
Blind clinical nephropathy scores were conducted for all animals in the study. Glomerulosclerosis, interstitial nephritis, collagen fiber deposition, and nephropathy were each assessed for all experimental rats, and a total clinical score was determined for each rat. The scoring system represented the degree or percentage of lesions in the whole kidney. Clinical score assessments were performed on Day 14.

[1] = CIA study: pharmacokinetics / plasma concentration after oral administration; assay type: in vivo, Lewis rats; conditions: for concentration at 21 day: oral
[2] = UUO rats, individual animals 1-8
[3] = CIA-induced animals, day 0, 3 mg/kg, average
[4] = CIA-induced animals, day 0, 3 mg/kg, individual test subjects
[5] = CIA-induced animals, day 21, 3 mg/kg, average
[6] = CIA-induced animals, day 21, 3 mg/kg, individual test subjects

Cn1cc(-c2ccccc2)c(-c2cn(C)c(=O)c3[nH]c(-c4cnn(C(F)(F)F)c4)cc23)cc1=O [Compound A, 6-methyl-4-(1-methyl-2-oxo-5-phenyl-1,2-dihydropyridin-4-yl)-2-(1-(trifluoromethyl)-1H-pyrazol-4-yl)-1,6-dihydro-7H-pyrrolo[2,3-c]pyridin-7-one]
Total histology score (FIG. 26D) (renal fibrosis (UUO); UUO + Compound A (10 mg/kg) relative to sham treated animals): marked decrease in total histology score | Collagen fiber deposition clinical score (renal fibrosis (UUO); [2]): 1 (4×) and 2 (3×) and 3 | Glomerulosclerosis clinical score (renal fibrosis (UUO); [2]): 0 | Interstitial nephritis clinical score (renal fibrosis (UUO); [2]): 2 (4×) and 3 (4×) | Nephropathy clinical score (renal fibrosis (UUO); [2]): 1 and 2 (7×) | Total score (renal fibrosis (UUO); [2]): 4 and 7 (3×) and 5 (3×) and 8 | Clinical histopathology scores / histological indicators of fibrosis relative to UUO + vehicle (renal fibrosis (UUO); UUO rats, 10 mg/kg PO QD, 10 mg/kg): reduced levels of interstitial nephritis, collagen fiber deposition, and nephropathy, as well as total clinical scores; also recorded: reduced the severity of all histological indicators of fibrosis; also recorded: ameliorates clinical symptoms associated with UUO | AUClast/D (Mean) [1, 3]: 509 mg·h/mL | AUC—%Extrap—obs (Mean) [1, 3]: 14.0% | AUCInf [1, 4]: 1393 ng·h/mL and 1454 ng·h/mL | AUClast [1, 4]: 1250 ng·h/mL and 1264 ng·h/mL | AUC—%Extrap—obs [1, 4]: 18.6% and 10.3% and 13.1% | Cmax [1, 4]: 77.9 ng/mL and 82.6 ng/mL | MRTInf—obs [1, 4]: 10.7 h and 11.8 h | T1/2 [1, 4]: 7.03 h and 7.60 h | AUClast/D (Mean) [1, 5]: 246 mg·h/mL | AUC—%Extrap—obs (Mean) [1, 5]: 17.3% | MRTlnf—obs (Mean) [1, 5]: 13.5 h | AUCInf [1, 6]: 1059 ng·h/mL and 985 ng·h/mL | AUClast [1, 6]: 826 ng·h/mL and 784 ng·h/mL | AUC—%Extrap—obs [1, 6]: 9.67% and 22.0% and 20.4% | Cmax [1, 6]: 51.2 ng/mL and 45.7 ng/mL | MRTInf—obs [1, 6]: 15.5 h and 14.9 h | T1/2 [1, 6]: 10.3 h and 9.68 h | Plasma Concentration ([1]; Day 21, CIA rats, 1 mg/kg): 12.8 ng/mL and 14.5 ng/mL and 13.9 ng/mL and 14.3 ng/mL and 21.1 ng/mL and 20.6 ng/mL | Plasma Concentration ([1]; Day 21, CIA rats, 10 mg/kg): 181 ng/mL and 240 ng/mL and 230 ng/mL and 264 ng/mL and 174 ng/mL and 255 ng/mL and 248 ng/mL | concentration at 21 day ([1]; Lewis, rat, plasma, 1 mg/kg, Day 21, CIA rats, 1 mg/kg, read-out: Plasma Concentration): 13 ng/mL | concentration at 21 day ([1]; Lewis, rat, plasma, 1 mg/kg, Group 5 (CIA + Compound A 1 mg/kg), read-out: Day 21 Mean Plasma Concentration): 15.5 ng/mL | concentration at 21 day ([1]; Lewis, rat, plasma, 3 mg/kg, Group 6 (CIA + Compound A 3 mg/kg), read-out: Day 21 Mean Plasma Concentration): 49.5 ng/mL | concentration at 21 day ([1]; Lewis, rat, plasma, 10 mg/kg, Day 21, CIA rats, 10 mg/kg, read-out: Plasma Concentration): 232 ng/mL | concentration at 21 day ([1]; Lewis, rat, plasma, 10 mg/kg, Group 7 (CIA + Compound A 10 mg/kg), read-out: Day 21 Mean Plasma Concentration): 221 ng/mL | AUC(0-inf) ([1]; Lewis, rat, plasma, po, 3 mg/kg, CIA-induced animals, day 0, 3 mg/kg, average, read-out: AUCInf (Mean)): 1800 ng·h/mL | AUC(0-t) ([1]; Lewis, rat, plasma, po, 3 mg/kg, CIA-induced animals, day 0, 3 mg/kg, average, read-out: AUClast (Mean)): 1530 ng·h/mL | Cmax ([1]; Lewis, rat, plasma, po, 3 mg/kg, CIA-induced animals, day 0, 3 mg/kg, average, read-out: Cmax (Mean)): 95 ng/mL | MRT inf ([1]; Lewis, rat, plasma, po, 3 mg/kg, CIA-induced animals, day 0, 3 mg/kg, average, read-out: MRTInf—obs (Mean)): 12.2 h | half-life ([1]; Lewis, rat, plasma, po, 3 mg/kg, CIA-induced animals, day 0, 3 mg/kg, average, read-out: T1/2 (Mean) (converted)): 7.94 h | Tmax ([1]; Lewis, rat, plasma, po, 3 mg/kg, CIA-induced animals, day 0, 3 mg/kg, average, read-out: Tmax (Mean)): 5.33 h | AUC(0-inf) ([1]; Lewis, rat, plasma, po, 3 mg/kg, CIA-induced animals, day 0, 3 mg/kg, individual test subjects, read-out: AUCInf): 2540 ng·h/mL | AUC(0-t) ([1]; Lewis, rat, plasma, po, 3 mg/kg, CIA-induced animals, day 0, 3 mg/kg, individual test subjects, read-out: AUClast): 2070 ng·h/mL | Cmax ([1]; Lewis, rat, plasma, po, 3 mg/kg, CIA-induced animals, day 0, 3 mg/kg, individual test subjects, read-out: Cmax): 123 ng/mL | MRT inf ([1]; Lewis, rat, plasma, po, 3 mg/kg, CIA-induced animals, day 0, 3 mg/kg, individual test subjects, read-out: MRTInf—obs): 14.1 h | half-life ([1]; Lewis, rat, plasma, po, 3 mg/kg, CIA-induced animals, day 0, 3 mg/kg, individual test subjects, read-out: T1/2 (converted)): 9.19 h | Tmax ([1]; Lewis, rat, plasma, po, 3 mg/kg, CIA-induced animals, day 0, 3 mg/kg, individual test subjects, read-out: Tmax): 6 h | AUC(0-t) ([1]; Lewis, rat, plasma, po, 3 mg/kg, CIA-induced animals, day 21, 3 mg/kg, average, read-out: AUClast (Mean)): 738 ng·h/mL | Cmax ([1]; Lewis, rat, plasma, po, 3 mg/kg, CIA-induced animals, day 21, 3 mg/kg, average, read-out: Cmax (Mean)): 48.4 ng/mL | half-life ([1]; Lewis, rat, plasma, po, 3 mg/kg, CIA-induced animals, day 21, 3 mg/kg, average, read-out: T1/2 (Mean) (converted)): 8.9 h | Tmax ([1]; Lewis, rat, plasma, po, 3 mg/kg, CIA-induced animals, day 21, 3 mg/kg, average, read-out: Tmax (Mean)): 5.33 h | AUC(0-inf) ([1]; Lewis, rat, plasma, po, 3 mg/kg, CIA-induced animals, day 21, 3 mg/kg, individual test subjects, read-out: AUCInf): 668 ng·h/mL | AUC(0-t) ([1]; Lewis, rat, plasma, po, 3 mg/kg, CIA-induced animals, day 21, 3 mg/kg, individual test subjects, read-out: AUClast): 604 ng·h/mL | Cmax ([1]; Lewis, rat, plasma, po, 3 mg/kg, CIA-induced animals, day 21, 3 mg/kg, individual test subjects, read-out: Cmax): 48.3 ng/mL | MRT inf ([1]; Lewis, rat, plasma, po, 3 mg/kg, CIA-induced animals, day 21, 3 mg/kg, individual test subjects, read-out: MRTInf—obs): 10.1 h | half-life ([1]; Lewis, rat, plasma, po, 3 mg/kg, CIA-induced animals, day 21, 3 mg/kg, individual test subjects, read-out: T1/2 (converted)): 6.79 h | Tmax ([1]; Lewis, rat, plasma, po, 3 mg/kg, CIA-induced animals, day 21, 3 mg/kg, individual test subjects, read-out: Tmax): 4 h | concentration at 2 h ([1]; Lewis, rat, plasma, po, 3 mg/kg, oral 3 mg/kg, day 0, 2 h, individual test subjects, read-out: Plasma concentration): 109 ng/mL | concentration at 4 h ([1]; Lewis, rat, plasma, po, 3 mg/kg, oral 3 mg/kg, day 0, 4 h, individual test subjects, read-out: Plasma concentration): 112 ng/mL
